Assay [1] deals with poly[d(G-C)2] (DNA, polymer) GC. The experiment in a line: limited-bound ethidium bromide fluorescence quenching, Hill model. The note with it: Na+ (40 mM NaCl); 80 mM HEPES pH 7.2; 5 μM EtBr, 25 μM DNA; EtBr fluorescence quenched; per base.
Assay [2] concerns FRET-1 (DNA, hairpin) CGCGAATTCGCGAAAAACGCGAATTCGCG
The experiment in a line: fluorescence (FRET) melting, Bard equation. The settings on record: 1.0 μM DNA; r = 0–7; derived from Tm fraction bound; 37 °C pre-incubation.

For assay [3] the test system is unchanged. Put plainly: fluorescence (FRET) melting. The settings on record: 7 μM compound (r = 7), 1.0 μM DNA; control Tm 74.9 °C.
For assay [4], the system named is FRET-2 (DNA, hairpin) GCATTATAATGCAAAAAGCATTATAATGC
Put plainly: fluorescence (FRET) melting. The settings on record: 10 μM compound (r = 10), 1.0 μM DNA; control Tm 61.5 °C.

Assay [5] deals with FRET-3 (DNA, hairpin) ATCGGCGCCGATAAAAAATCGGCGCCGAT
The experiment in a line: fluorescence (FRET) melting. The settings on record: 10 μM compound (r = 10), 1.0 μM DNA; control Tm 79.7 °C; condensation; +0.48 °C at r = 2.

Assay [6] deals with F-3 (DNA, hairpin) ATCGGCGCCGATAAAAAATCGGCGCCGAT
Put plainly: MST instrument, initial fluorescence, Hill model. The note with it: Na+ (25 mM NaCl); 80 mM HEPES; 1 μM DNA; low 10^–5 M; fluorescence decrease ascribed to DNA condensation.

Assay [7] relates to F-1 (DNA, hairpin) CGCGAATTCGCGAAAAACGCGAATTCGCG
The experiment in a line: MST instrument, initial fluorescence, Hill model. The note with it: Na+ (25 mM NaCl); 80 mM HEPES; 1 μM DNA; low 10^–5 M; fluorescence decrease ascribed to DNA condensation.

For assay [8], the system named is poly[d(G-C)2] (DNA, polymer) GC. The experiment in a line: ethidium bromide displacement (fluorescence). The settings on record: 12.5 μM EtBr displaced, 12.5 μM DNA, 1 h, per base.
The test system of assay [9] is F-4 (DNA, hairpin) ATGGCCGGCCGGAAAAACCGGCCGGCCAT
The experiment in a line: MST instrument, initial fluorescence, Hill model. The settings on record: Na+ (25 mM NaCl); 80 mM HEPES; 1 μM DNA; low 10^–5 M; fluorescence decrease ascribed to DNA condensation.

The test system of assay [10] is F-2 (DNA, hairpin) GCATTATAATGCAAAAAGCATTATAATGC
Put plainly: MST instrument, initial fluorescence, Hill model. The note with it: Na+ (25 mM NaCl); 80 mM HEPES; 1 μM DNA; fluorescence decrease ascribed to DNA condensation.

The test system of assay [11] is FRET-4 (DNA, hairpin) ATGGCCGGCCGGAAAAACCGGCCGGCCAT
The experiment in a line: fluorescence (FRET) melting. The settings on record: 10 μM compound (r = 10), 1.0 μM DNA; control Tm 83.0 °C; condensation; +1.21 °C at r = 2.5.

Assay [12] relates to poly[d(A-T)2] (DNA, polymer) AT. Put plainly: ethidium bromide displacement (fluorescence). The settings on record: 12.5 μM EtBr displaced, 12.5 μM DNA, 1 h, per base.
The test system is the same in assay [13]. Put plainly: limited-bound ethidium bromide fluorescence quenching, Hill model. The settings on record: Na+ (40 mM NaCl); 80 mM HEPES pH 7.2; 5 μM EtBr, 25 μM DNA; EtBr fluorescence quenched; per base.
In assay [14] the test system is FRET-2 (DNA, hairpin) GCATTATAATGCAAAAAGCATTATAATGC
Put plainly: fluorescence (FRET) melting, Bard equation. The note with it: 1.0 μM DNA; r = 0–10; derived from Tm fraction bound; 37 °C pre-incubation.

The mark [15] stands for this setting: apparent, complex prepared in situ, Kapp = Kb × 12.6/C50.

Each structure is given as a SMILES string.

By EC50 is commonly meant the concentration giving half of the maximal effect. Low values mean a more potent agent, high ones a less potent agent. Regarding `O=[N+]([O-])[O-].O=[N+]([O-])[O-].O=[N+]([O-])[O-].O=[N+]([O-])[O-].[Cu+2].[Cu+2].c1cnc2c(c1)cc(-n1cc(CCCCc3cn(-c4cc5cccnc5c5ncccc45)nn3)nn1)c1cccnc12`, the “Q (EC50)” value in assay [1] was 12.86 µM; in assay [13], 11.18 µM. Besides, the Kb in assay [2] was 1.06e+07 M⁻¹; in assay [14], 4.38e+08 M⁻¹. Also, the “Δ TM” value in assay [3] was “+ 4.5 °C”; in assay [4], “+ 3.6 °C”; in [5], “- 3.7 °C”; in assay [11], “- 6.3 °C”. In addition, the EC50 in [6] was 11.39 µM; in [7] it was 11.92 µM; in [9], 11.25 µM; in assay [10], 9.2 × 10^–6 M. The C50 is on record as 6.318 µM in [8] and 3.911 µM in assay [12]. Further, the results for the Kapp in assay [8] (setting [15]) and in [12] (setting [15]) were 1.75e+07 M⁻¹ and 2.84e+07 M⁻¹, respectively.

For the origin of these results see publication PMC11705080 (2025).
